Values of other authors in PMC3834896.
Where two headings read alike, the source gives them in different places.

Assay: not told

| log partition n-octanol / PBS or water [log10] | log partition n-octanol / PBS or water (not told) [log10] | Structure (SMILES) |
| --- | --- | --- |
| 4.9 | – | CCCCCCCCCCCCN1CCCC1=O |
| – | 4.0 | CCCCCCCCN1CCCCCC1=O |
| – | 1.4 | CCCCCC(=O)N(C)C |
| – | 1.9 | CCCCCCCCC(=O)N(C)C |
| 3.0 | – | CCCCCCCCN1CCCC1=O |
| 1.02 | – | CCCCN1CCCC1=O |
| – | 2.9 | CCCCCCN1CCCCCC1=O |
| 1.4 | – | CCCCN1CCCCC1=O |
| 3.4 | – | CCCCCCCCN1CCCCC1=O |
| – | 2.6 | CCCCCCCC(=O)N(C)C |
| 4.1 | – | CCCCCCCCCCN1CCCC1=O |
| 2.6 | – | CCCCCCN1CCCCC1=O |
| – | 6.3 | CCCCCCCCCCCCN1CCCCCC1=O |
| 2.1 | – | CCCCCCN1CCCC1=O |
| – | 1.8 | CCCCN1CCCCCC1=O |
| – | 2.9 | CCCCCCCCCC(=O)N1CC(O)CC1C(=O)NCC (centres unmarked) |
| – | 1.9 | CCCCCCC(=O)N(C)C |
